# According to patent US20260191807A1, “COMPOSITIONS AND METHODS FOR TREATMENT OF PRADER-WILLI SYNDROME” (ERX Pharmaceuticals Inc., priority 2022, published 2026):
# Experiments:
# Type in all cases: in vivo
# C57BL/6 mice = experiment: Deaths and clinical signs, C57BL/6 DIO study; settings: C57BL/6 DIO mice treated Day 1 to Day 15; Celastrol 0.2 mg/kg IP
# Protocol: C57BL/6 mice were treated with test compound (Celastrol) or controls as shown in the table below from Day 1 to Day 15. […] One mouse was excluded from the study because it appeared resistant to nestlet shredding prior to treatment.
# C57BL/6-Magel2 mice [1] = experiment: Nestlet shredding test in C57BL/6 Magel2 mice; settings: 0.2 mg/kg IP QD, mean
# Protocol: The nestlet shredding behavioral effects of celastrol was evaluated in Magel2 knockout mice. Magel2 knockout has been used as a model of Prader-Willi syndrome to assess potential pharmacological treatments effect on behavior (Meziane 2015). Without wishing to be bound by theory, the Magel2 gene is a major causative gene of phenotypes in both Prader-Willi syndrome and autism (Schraff 2013). Further, nestlet shredding has been used to assess anxiety and compulsive behaviors in mouse models (Angoa-Perez 2013 and Dorniger 2020) and has been used to characterize clinically effective treatments for Prader-Willi syndrome (Fagen 2018 and McCandless 2017).
# (§1) In the study disclosed herein, celastrol at was administered intraperitoneally using a 30G needle at a dose of 0.2 mg/kg to five female Magel2 homozygous mice (−/−) and four male mice heterozygous for Magel2 (−/+). In addition, vehicle was administered to four male mice heterozygous for Magel2 (−/+) for 21 days.
# (§2) C57BL/6-Magel2 mice were bred for purpose from cryo recovery by Jackson Labs (Bar Harbor, ME) and arrived at the testing facility at age 8 weeks.
# (§3) All treatment volumes were 10 mL/kg. Utilizing the art-recognized nestlet shredding mouse model, the dose was administered by gavage (as capsule dosing is challenging in mice). Celastrol and the vehicle control were administered intraperitoneally using a 30G needle. All treatments were administered daily in the afternoon at 17:00 h, 1 hour before dark cycle from Day 1 to end of dosing.
# (§4) Celastrol was dissolved in 50% Solutol/50% DMAC. The resulting stock solution aliquoted and stored at −80° C. until treatment day. On the day of treatment an aliquot of the stock solution was thawed and diluted 1:20 with saline to obtain the desired dosing solution strength in 5%
# The nestlet shredding test is an art-recognized animal model for human repetitive, anxiety, and/or compulsive behaviors. In the nestlet shredding test, a nestlet comprised of pulped fiber, e.g., cotton fiber, is preweighed and placed on top of cage bedding and the amount of the nestlet remaining intact after a test session of pre-determined time is evaluated.
# Nestlet shredding was determined on day 1, day 11, and day 21 by placing a fresh nestlet prior to the dark cycle and measuring the weight of the remaining nestlet at 12 and 24 hours on an Ohaus model CS 200 balance. Percent shredding was calculated based on the initial nestlet weight.
# Magel2 mice = experiment: Deaths and clinical signs, Magel2 study; settings: 0.2 mg/kg IP for 21 days
# Protocol: as §1
# C57BL/6-Magel2 mice [2] = experiment: Body weights of C57BL/6 Magel2 mice during daily treatment; settings: 0.2 mg/kg IP QD; for Body weights (expressed as a percentage of day-1 weight) / Body weights (in grams): mean; for body weight lost from day 1 to day 21: vehicle +2.7%
# Protocol: as §1, §2, §3, §4
# Mouse body weights were recorded from an Ohaus model CS 200 balance. Mice were weighed daily on Day 1 to Day 21. Body weight changes are expressed as grams and percent of the initial body weight (on Day 1, when treatments began).
# [3] = Day 1, Magel2 (−/+) heterozygous male mice
# [4] = Day 1, Magel2 (−/−) homozygous female mice
# [5] = Day 2, Magel2 (−/+) heterozygous male mice
# [6] = Day 2, Magel2 (−/−) homozygous female mice
# [7] = Day 4, Magel2 (−/+) heterozygous male mice
# [8] = Day 4, Magel2 (−/−) homozygous female mice
# [9] = Day 6, Magel2 (−/+) heterozygous male mice
# [10] = Day 6, Magel2 (−/−) homozygous female mice
# [11] = Day 8, Magel2 (−/+) heterozygous male mice
# [12] = Day 8, Magel2 (−/−) homozygous female mice
# [13] = Day 10, Magel2 (−/+) heterozygous male mice
# [14] = Day 10, Magel2 (−/−) homozygous female mice
# [15] = Day 11, Magel2 (−/+) heterozygous male mice
# [16] = Day 11, Magel2 (−/−) homozygous female mice
# [17] = Day 13, Magel2 (−/+) heterozygous male mice
# [18] = Day 13, Magel2 (−/−) homozygous female mice
# [19] = Day 15, Magel2 (−/+) heterozygous male mice
# [20] = Day 15, Magel2 (−/−) homozygous female mice
# [21] = Day 17, Magel2 (−/+) heterozygous male mice
# [22] = Day 17, Magel2 (−/−) homozygous female mice
# [23] = Day 18, Magel2 (−/+) heterozygous male mice
# [24] = Day 18, Magel2 (−/−) homozygous female mice
# [25] = Day 20, Magel2 (−/+) heterozygous male mice
# [26] = Day 20, Magel2 (−/−) homozygous female mice
# [27] = Day 21, Magel2 (−/+) heterozygous male mice
# [28] = Day 21, Magel2 (−/−) homozygous female mice
compound,measurement,setting,value
CC1=C(O)C(=O)C=C2C1=CC=C1[C@@]2(C)CC[C@@]2(C)[C@@H]3C[C@](C)(C(=O)O)CC[C@]3(C)CC[C@]12C [Celastrol],deaths or abnormal clinical signs,C57BL/6 mice,No deaths or abnormal clinical signs
same,Nestlet Shredding (percent of nestlet shredded),"C57BL/6-Magel2 mice [1]; Day 1, 12 hour, Magel2 (−/+) heterozygous male mice",100.0%
same,Nestlet Shredding (percent of nestlet shredded),"C57BL/6-Magel2 mice [1]; Day 1, 12 hour, Magel2 (−/−) homozygous female mice",100.0%
same,Nestlet Shredding (percent of nestlet shredded),"C57BL/6-Magel2 mice [1]; Day 11, 12 hour, Magel2 (−/+) heterozygous male mice",100.0%
same,Nestlet Shredding (percent of nestlet shredded),"C57BL/6-Magel2 mice [1]; Day 11, 12 hour, Magel2 (−/−) homozygous female mice",54.7%
same,Nestlet Shredding (percent of nestlet shredded),"C57BL/6-Magel2 mice [1]; Day 11, 24 hour, Magel2 (−/+) heterozygous male mice",100.0%
same,Nestlet Shredding (percent of nestlet shredded),"C57BL/6-Magel2 mice [1]; Day 11, 24 hour, Magel2 (−/−) homozygous female mice",93.5%
same,Nestlet Shredding (percent of nestlet shredded),"C57BL/6-Magel2 mice [1]; Day 21, 12 hour, Magel2 (−/+) heterozygous male mice",38.3%
same,Nestlet Shredding (percent of nestlet shredded),"C57BL/6-Magel2 mice [1]; Day 21, 12 hour, Magel2 (−/−) homozygous female mice",54.7%
same,Nestlet Shredding (percent of nestlet shredded),"C57BL/6-Magel2 mice [1]; Day 21, 24 hour, Magel2 (−/+) heterozygous male mice",44.6%
same,Nestlet Shredding (percent of nestlet shredded),"C57BL/6-Magel2 mice [1]; Day 21, 24 hour, Magel2 (−/−) homozygous female mice",62.3%
same,deaths or abnormal clinical signs,Magel2 mice,No deaths or abnormal clinical signs
same,Body weights (expressed as a percentage of day-1 weight),C57BL/6-Magel2 mice [2]; [3],100.0%
same,Body weights (in grams),C57BL/6-Magel2 mice [2]; [3],26.6 grams
same,Body weights (expressed as a percentage of day-1 weight),C57BL/6-Magel2 mice [2]; [4],100.0%
same,Body weights (in grams),C57BL/6-Magel2 mice [2]; [4],20.5 grams
same,Body weights (expressed as a percentage of day-1 weight),C57BL/6-Magel2 mice [2]; [5],99.6%
same,Body weights (in grams),C57BL/6-Magel2 mice [2]; [5],26.5 grams
same,Body weights (expressed as a percentage of day-1 weight),C57BL/6-Magel2 mice [2]; [6],101.2%
same,Body weights (in grams),C57BL/6-Magel2 mice [2]; [6],20.8 grams
same,Body weights (expressed as a percentage of day-1 weight),C57BL/6-Magel2 mice [2]; [7],101.1%
same,Body weights (in grams),C57BL/6-Magel2 mice [2]; [7],26.9 grams
same,Body weights (expressed as a percentage of day-1 weight),C57BL/6-Magel2 mice [2]; [8],105.6%
same,Body weights (in grams),C57BL/6-Magel2 mice [2]; [8],21.7 grams
same,Body weights (expressed as a percentage of day-1 weight),C57BL/6-Magel2 mice [2]; [9],99.4%
same,Body weights (in grams),C57BL/6-Magel2 mice [2]; [9],26.4 grams
same,Body weights (expressed as a percentage of day-1 weight),C57BL/6-Magel2 mice [2]; [10],107.1%
same,Body weights (in grams),C57BL/6-Magel2 mice [2]; [10],22.0 grams
same,Body weights (expressed as a percentage of day-1 weight),C57BL/6-Magel2 mice [2]; [11],101.3%
same,Body weights (in grams),C57BL/6-Magel2 mice [2]; [11],26.9 grams
same,Body weights (expressed as a percentage of day-1 weight),C57BL/6-Magel2 mice [2]; [12],106.2%
same,Body weights (in grams),C57BL/6-Magel2 mice [2]; [12],21.8 grams
same,Body weights (expressed as a percentage of day-1 weight),C57BL/6-Magel2 mice [2]; [13],96.4%
same,Body weights (in grams),C57BL/6-Magel2 mice [2]; [13],25.6 grams
same,Body weights (expressed as a percentage of day-1 weight),C57BL/6-Magel2 mice [2]; [14],100.9%
same,Body weights (in grams),C57BL/6-Magel2 mice [2]; [14],20.7 grams
same,Body weights (expressed as a percentage of day-1 weight),C57BL/6-Magel2 mice [2]; [15],94.4%
same,Body weights (in grams),C57BL/6-Magel2 mice [2]; [15],25.1 grams
same,Body weights (expressed as a percentage of day-1 weight),C57BL/6-Magel2 mice [2]; [16],95.6%
same,Body weights (in grams),C57BL/6-Magel2 mice [2]; [16],19.6 grams
same,Body weights (expressed as a percentage of day-1 weight),C57BL/6-Magel2 mice [2]; [17],94.2%
same,Body weights (in grams),C57BL/6-Magel2 mice [2]; [17],25.0 grams
same,Body weights (expressed as a percentage of day-1 weight),C57BL/6-Magel2 mice [2]; [18],93.5%
same,Body weights (in grams),C57BL/6-Magel2 mice [2]; [18],19.2 grams
same,Body weights (expressed as a percentage of day-1 weight),C57BL/6-Magel2 mice [2]; [19],93.9%
same,Body weights (in grams),C57BL/6-Magel2 mice [2]; [19],25.0 grams
same,Body weights (expressed as a percentage of day-1 weight),C57BL/6-Magel2 mice [2]; [20],95.0%
same,Body weights (in grams),C57BL/6-Magel2 mice [2]; [20],19.5 grams
same,Body weights (expressed as a percentage of day-1 weight),C57BL/6-Magel2 mice [2]; [21],85.0%
same,Body weights (in grams),C57BL/6-Magel2 mice [2]; [21],22.6 grams
same,Body weights (expressed as a percentage of day-1 weight),C57BL/6-Magel2 mice [2]; [22],85.3%
same,Body weights (in grams),C57BL/6-Magel2 mice [2]; [22],17.5 grams
same,Body weights (expressed as a percentage of day-1 weight),C57BL/6-Magel2 mice [2]; [23],83.0%
same,Body weights (in grams),C57BL/6-Magel2 mice [2]; [23],22.1 grams
same,Body weights (expressed as a percentage of day-1 weight),C57BL/6-Magel2 mice [2]; [24],85.6%
same,Body weights (in grams),C57BL/6-Magel2 mice [2]; [24],17.6 grams
same,Body weights (expressed as a percentage of day-1 weight),C57BL/6-Magel2 mice [2]; [25],84.5%
same,Body weights (in grams),C57BL/6-Magel2 mice [2]; [25],22.5 grams
same,Body weights (expressed as a percentage of day-1 weight),C57BL/6-Magel2 mice [2]; [26],88.8%
same,Body weights (in grams),C57BL/6-Magel2 mice [2]; [26],18.3 grams
same,Body weights (expressed as a percentage of day-1 weight),C57BL/6-Magel2 mice [2]; [27],83.8%
same,Body weights (in grams),C57BL/6-Magel2 mice [2]; [27],22.3 grams
same,Body weights (expressed as a percentage of day-1 weight),C57BL/6-Magel2 mice [2]; [28],89.6%
same,Body weights (in grams),C57BL/6-Magel2 mice [2]; [28],18.4 grams
same,body weight lost from day 1 to day 21,C57BL/6-Magel2 mice [2]; female homozygous Magel2 (−/−) mice,10.4%
same,body weight lost from day 1 to day 21,C57BL/6-Magel2 mice [2]; male heterozygous Magel2 (−/+) mice,16.2%
